Here are results for three compounds from patent US6166076A, “Taste enhancing food additives” (Board of Supervisors of Louisiana State University and …, priority 1997, dated 2000).

SMILES strings stand for the structures.

In test [1] the test system is inactivating A-type K^+ channels (IA). Description: whole-cell patch clamp, inactivating A-type K^+ current (IA) in rat fungiform taste receptor cells. The test is classed as cell-based, rat (Sprague-Dawley). Particulars: 4-AP 10 mM; in presence of arachidonic acid; n=10 cells. Here is the method:
(§1) Voltage-activated currents were recorded from individual taste receptor cells maintained in the taste bud using the whole-cell patch clamp configuration, as generally described in Hamill et al., "Improved Patch-clamp Techniques for High-resolution Current Recording from Cells and Cell-free Membrane Patches," Pflugers Arch., Vol. 391, pp. 85-100 (1981). […]
(§2) Typical seal resistances on TRC membranes ranged from […] to greater than 50 G.OMEGA.. […] Commands were delivered and data recorded using pCLAMP software (version 6.0.3) interfaced to an AxoPatch 200A amplifier with a Digidata 1200A A-D board (Axon Instruments, Foster City, Calif.). […]
(§3) For analysis, currents during FFA application were averaged over a consistent time range corresponding to the steady-state condition, and were compared to currents in control (Tyrode's) solution. […] For analysis of delayed rectifying K^+ channels, currents were measured at command potentials of +40 mV during steady-state; inwardly rectifying currents, when investigated, were measured at -130 mV. Significant effects of FFAs on K^+ currents were determined by paired Student's t tests (α=0.05) compared to control currents immediately preceding the test stimulus. […]

In test [2] the test system is inwardly rectifying K^+ channels (Kir). Description: whole-cell patch clamp, inwardly rectifying K^+ channels (Kir) at -130 mV in rat fungiform taste receptor cells. The test is classed as cell-based, rat (Sprague-Dawley). An excerpt:
(§4) The effects of free fatty acids ("FFAs") on taste buds isolated from rat fungiform papillae were examined to determine if a chemosensory (i.e. non-textural) cue for fats is located in the mouth. The methods used to isolate TRCs were generally as described in Behe et al., "Membrane Currents in Taste Cells of the Rat Fungiform Papilla: Evidence for Two Types of Ca Currents and Inhibition of K Currents by Saccharin," Journal of General Physiology, Vol. 96, pp. 1061-1084 (1990); Doolin et al., "Distribution and Characterization of Functional Amiloride-sensitive Sodium Channels in Rat Tongue," Journal of General Physiology, Vol. 107. pp. 545-554 (1996); and Gilbertson et al., "Proton Currents Through Amiloride-sensitive Na^+ Channels in Isolated Hamster Taste Cells: Enhancement by Vasopressin and cAMP," Neuron, Vol. 10, pp. 931-942 (1993).
(§5) Individual fungiform taste buds were isolated from the tongues of 2- to 5-month-old male Sprague-Dawley rats (Harlan Sprague Dawley, Indianapolis,Ind.). Animals were housed individually in polycarbonate cages with food (Purina #5001, Purina Mills, St. Louis, Mo.) provided ad lib. The room containing the rats was maintained at 21-23° C. on a 0700-1900 h light-dark cycle. All animal care and experimental procedures were in accordance with National Institutes of Health guidelines, and were approved by the Institutional Animal Care and Use Committee of the Pennington Biomedical Research Center.
(§6) Tongues were removed from euthanized rats, and were immediately placed in ice-cold Tyrode's solution. To remove the lingual epithelium containing the taste buds from the underlying muscle layer, approximately 1.0 ml of Tyrode's solution containing 0.3 mg/ml collagenase A (Boehringer Mannheim Corp., Indianapolis, Ind.), 2.5 mg/ml dispase (grade II; Boehringer Mannheim) and 1.0 mg/ml trypsin inhibitor (type I-S; Sigma Chemical Co., St. Louis, Mo.) was injected below the epithelium. The injected tongue was placed in Ca--Mg free Tyrode's solution and bubbled with O2 for 33-35 min. The lingual epithelium was removed and pinned serosal side up, allowing access to the taste buds. Fungiform taste buds were removed individually by gentle suction with a large, firepolished pipette (~200 μm diameter), and were plated onto Cell-Tak™-coated microscope slides (Collaborative Biomedical Prod., Bedford, Mass.) fitted with an O-ring which served as a recording chamber. Once plated, cells were perfused continually with Tyrode's or various test solutions. Taste buds isolated in this manner were used for up to 6 hours without any noticeable morphological or physiological decrement.
(§7) All chemicals were obtained from Sigma Chemical Corporation (St. Louis, Mo.) unless otherwise indicated. Normal extracellular solution (Tyrode's) contained (in mM): NaCl, 140; KCl, 5; CaCl2, 1; MgCl2, 1; HEPES (N-[2-hydroxyethyl] piperazine-N'-[2-ethanesulfonic acid), 10; glucose, 10; and sodium pyruvate, 10. The pH was adjusted to 7.40 with NaOH. In Ca^2+ --Mg^2+ free Tyrode's solution, 2 mM BAPTA (1,2-bis(2-aminophenoxy) ethane-N,N,N',N'-tetraacetic acid) (Molecular Probes, Eugene, Oreg.) replaced CaCl2 and MgCl2. Other components were identical to Tyrode's solution. Intracellular (pipette) solution contained (in mM): KCl, 140; CaCl2, 1 [free Ca^2+ was ~10^-8 M]; MgCl2, 2; HEPES, 10; EGTA (ethylene glycol-bis(β-aminoethylether)-N,N,N',N'-tetraacetic acid), 11; and ATP, 3. The pH was adjusted to 7.20 with KOH.
(§8) Free fatty acids (FFAs) were stored below -20° C. until the day of use, when they were dissolved in warm ethanol and diluted to final working concentrations in Tyrode's solution. Final ethanol concentrations in Tyrode's were below 0.1%; the ethanol had no effect on ionic currents in any TRCs. All FFAs were applied by bath perfusion. In some experiments, FFA-containing solutions were bubbled continuously with nitrogen to retard oxygenation. […]
(In general: Patch clamp records ionic current or voltage across a cell membrane.)

Test [3] deals with delayed rectifying K^+ channels. Put plainly: patch clamp, delayed rectifying K^+ channels of TRCs isolated from S5B/P1 rats. The test is classed as cell-based. The text has this: (§9) To determine if there is a link between the sensitivity of TRCs to PUFAs and dietary fat preferences, the PUFA-sensitivities of TRCs using patch clamp techniques were compared on TRCs isolated from Osborne-Mendel ("O-M") rats and S5B/P1 rats, strains with different dietary preferences. O-M rats prefer fat over carbohydrate, while S5B/P1 rats prefer carbohydrate over fat. […] Rats whose TRCs were more sensitive to the fatty acids have a preference for a lower-fat diet; while rats whose TRCs are less sensitive to fatty acids seek diets that are higher in fat.

In test [4] the test system is cardiac atrial cells. As to conditions: applied extracellularly; cited from earlier work.
For test [5], the system named is delayed rectifying K^+ channels. Put plainly: patch clamp, delayed rectifying K^+ channels of TRCs isolated from Osborne-Mendel rats. The test is classed as cell-based.
Text: as §9

For test [6], the system named is delayed rectifier K^+ channel. Put plainly: whole-cell patch clamp, delayed rectifier K^+ channel (steady-state outward K^+ current at +40 mV) in rat fungiform taste receptor cells. Format: cell-based, rat (Sprague-Dawley).
Text: as §4, §5, §6, §7, §8

Test [7] has as its system ATP-inhibitable K channel (KATP). Put plainly: whole-cell patch clamp, ATP-inhibitable K channel (KATP) residual current in rat fungiform taste receptor cells. Format: cell-based, rat (Sprague-Dawley). Particulars: glyburide 20 μM; in presence of arachidonic acid and 4-AP; n=6 cells. The protocol: as §1, §2, §3

Turning to `Nc1ccncc1` [4-aminopyridine], the “inhibition of the rapidly inactivating current (IA)” value in test [1] was “reversibly and completely inhibited”.
A word on the Ki: it is a measure of affinity in units of concentration, obtained from inhibition or displacement. With `CCCCC/C=C\C/C=C\C/C=C\C/C=C\CCCC(=O)O` [arachidonic acid], the “change of Kir over control levels, in words” value in test [2] (10 μM arachidonic acid, approximately 30% of cells) is reported as “approximately doubling Kir over control levels”. Moreover, in test [2] (10 μM, -130 mV, n=16 cells, % of control), the “Kir compared to control” value was 191%±19.7. Further, in test [2] (10 μM, subset of cells, of the total), the “share of cells in which Kir was activated” value is recorded as “approximately 30%”. In addition, in test [2] (cells without Kir in control (saline) conditions), the “activation of Kir in cells that did not show this current in control” value is recorded as “not able to activate Kir”. For the same compound, the “effect on inward currents in cells without inward rectification” value in test [2] (potentials more negative than -100 mV, n=37 cells) was “not significantly affected”. In addition, in test [3] (10 μM, versus TRCs from O-M rats), the “sensitivity of S5B/P1 TRCs to inhibition compared with O-M TRCs” value is on record as “significantly more sensitive to inhibition”. In test [3] (TRCs from S5B/P1 rats), the “inhibition of the delayed rectifying K^+ channels, S5B/P1 rats” value is “inhibited the delayed rectifying K^+ channels in a concentration-dependent manner”. Further, in test [4], the “response of cardiac cells” value is “responded”. For the same compound, the “inhibition of the delayed rectifying K^+ channels, O-M rats” value in test [5] was “inhibited the delayed rectifying K^+ channels in a concentration-dependent manner”. Also, the “effect on outward K^+ currents, specificity test” value in test [6] (10 μM, >10 min (maximal effect), significance by paired t test) is given as “significantly reduced outward K^+ currents”. Further, in test [6] (10 μM, +40 mV, n=44 cells), the “inhibition of the voltage-activated steady-state outward K^+ current” value is on record as 83%. Besides, in test [6] (10 μM, n=18 cells), the “mean time constant (ton) for the onset of effects” value was 4.37 ± 1.8 min. Further, the “inhibition of delayed rectifier K^+ channel in presence of NDGA and indomethacin” value in test [6] (NDGA 10 μM and indomethacin 200 μM, n=5 cells) is on record as “inhibited the delayed rectifier K^+ channel”. For the same compound, the “effect on outward K^+ currents / delayed rectifier K^+ channel (in words)” value in test [6] (arachidonic acid 0.25-100 μM, extracellular, all cells examined) is reported as “reversible, slowly developing inhibition of the delayed rectifier K^+ channel”. For the same compound, the “time to reach maximum effect on outward K^+ currents” value in test [6] (extracellular arachidonic acid) lay in the range of 10 to 15 min. Also, the “recovery time constant (toff) from inhibition” value in test [6] (n=18 cells) came out at 10.92 ± 5.9 min. In addition, the “time constant for inactivation of the outward K^+ current” value in test [6] (presence of 10 μM arachidonic acid, control 457±103 msec, n=20) is 42 ± 26 ms. Moreover, the inhibitory constant (Ki) in test [6] (read-out: inhibition constant (Ki) for the delayed rectifier K^+ channel) is 1.02 µM. The “stimulation of taste receptor cells” value in test [6] (summary statement) is listed as “stimulate taste receptor cells”.
In the case of `COc1ccc(Cl)cc1C(=O)NCCc1ccc(S(=O)(=O)NC(=O)NC2CCCCC2)cc1` [glyburide], the “block of the residual (KATP) current” value in test [7] is given as “blocked the residual current”.
